Data: ChEMBL document CHEMBL1132340, “Novel prodrug approach for tertiary amines: synthesis and preliminary evaluation of N-phosphonooxymethyl prodrugs” (J Med Chem, 1999)

How the values were obtained:
Assay type in all cases: physicochemical
[1] = pKa2 value of the compound; details: read-out: pKa2
[2] = pKa value of the compound
[3] = pKa1 value of the compound; details: read-out: pKa1

pKa [1] | pKa [2] | pKa [3] | SMILES
7.5 |  |  | C[N+]1(COP(=O)(O)O)CCN(C2=Nc3ccccc3Oc3ccc(Cl)cc32)CC1
 | 6.56 |  | CCCCc1oc2ccccc2c1C(=O)c1cc(I)c(OCC[N+](CC)(CC)COP(=O)(O)O)c(I)c1
7.47 |  | 1.95 | O=P(O)(O)OC[N+]1(C/C=C/c2ccccc2)CCN(C(c2ccccc2)c2ccccc2)CC1
